# Read-outs that look alike come from different tables or passages of the source.
# Experiments:
# Format in all cases: biochemical
# [1] = target: CDK6/cycD3 (Homo sapiens (Human), UniProt Q00534); experiment: CDK6/cycD3 kinase Mobility Shift Assay; conditions: CDK6/cycD3 15 nM, ATP Km 800 μM, 60 min, 28° C.
# Experimental: (§1) 1. CDK2, CDK4 and CDK6 Kinase Assays:
# (§2) CDK2/CycA2 and CDK6/cycD3 were assayed under buffer conditions in the presence of 50 mM HEPES (pH 7.5), 10 mM MgCl2, 0.0015% Brij-35, and 2 mM dithiothreitol, CDK4/CycD3 with buffer condition of 20 mM HEPES (pH 7.5), 10 mM MgCl2, 0.01% Triton X-100, and 2 mM dithiothreitol. Prepare compounds to 50× of the final desired highest inhibitor concentration by 100% DMSO and serial dilution in 3-fold for total of 10 concentrations. […] After assay for 60 min, 180 min, 60 min respectively at 28° C., reactions were terminated with stop solution (50 mM EDTA, 0.015% Brij-35, 0.2% Coating Reagent #3 and 100 mM HEPES (pH 7.5)). Collect conversion on Caliper EZ Reader. IC50 values were calculated by fitting the dose-response curves with Xlfit excel add-in version 4.3.1.
# [2] = target: CDK4/CycD3 (Homo sapiens (Human), UniProt P11802); experiment: CDK4/CycD3 kinase Mobility Shift Assay
# Experimental: as §1, §2
# [3] = target: CDK2/CycA2 (Homo sapiens (Human), UniProt P24941); experiment: CDK2/CycA2 kinase Mobility Shift Assay; conditions: CDK2/CycA2 12 nM, ATP Km 39 μM, 60 min, 28° C.
# Experimental: as §1, §2
# [4] = target: HDAC-6 (Homo sapiens (Human), UniProt Q9UBN7); experiment: HDAC-6 fluorogenic deacetylase assay; conditions: recombinant, full-length protein, Ac-peptide-AMC substrate; read-out: HDAC6 (IC50)
# Experimental: (§3) 2. HDAC-1, HDAC-2 and HDAC-6 Assays:
# (§4) The inhibitory effect of compounds on HDAC-1, HDAC-2 and HDAC-6 function was determined in vitro using an optimized homogenous assay performed in 384-well plate format. In this assay, recombinant, full-length HDAC-1, HDAC-2 or HDAC-6 protein (BPS Biosciences) was incubated with Ac-peptide-AMC with concentration in Km plot. Reactions were performed in Tris-based assay buffer and followed for fluorogenic release of 7-amino-4-methylcoumarin from substrate upon deacetylase and trypsin enzymatic activity. Fluorescence measurements were obtained using a multilabel plate reader (Synergy MX with excitation at 355 nm and emission at 460 nm). Data were analyzed on a plate-by-plate basis for the linear range of fluorescence over time. Fit the data in GraphPad Prism V5.0 software to obtain IC50 values using equation (Y=Bottom+(Top−Bottom)/(1+10^((Log IC50−X)*Hill Slope), Y is % inhibition and X is compound concentration).
# [5] = target: HDAC-1 (Homo sapiens (Human), UniProt Q13547); experiment: HDAC-1 fluorogenic deacetylase assay; conditions: recombinant, full-length protein, Ac-peptide-AMC substrate; read-out: HDAC1 (IC50)
# Experimental: as §3, §4
# [6] = CDK4/CycD3 10 nM, ATP Km 221 μM, 180 min, 28° C.
# HDAC-6, sequence (Q9UBN7 whole entry): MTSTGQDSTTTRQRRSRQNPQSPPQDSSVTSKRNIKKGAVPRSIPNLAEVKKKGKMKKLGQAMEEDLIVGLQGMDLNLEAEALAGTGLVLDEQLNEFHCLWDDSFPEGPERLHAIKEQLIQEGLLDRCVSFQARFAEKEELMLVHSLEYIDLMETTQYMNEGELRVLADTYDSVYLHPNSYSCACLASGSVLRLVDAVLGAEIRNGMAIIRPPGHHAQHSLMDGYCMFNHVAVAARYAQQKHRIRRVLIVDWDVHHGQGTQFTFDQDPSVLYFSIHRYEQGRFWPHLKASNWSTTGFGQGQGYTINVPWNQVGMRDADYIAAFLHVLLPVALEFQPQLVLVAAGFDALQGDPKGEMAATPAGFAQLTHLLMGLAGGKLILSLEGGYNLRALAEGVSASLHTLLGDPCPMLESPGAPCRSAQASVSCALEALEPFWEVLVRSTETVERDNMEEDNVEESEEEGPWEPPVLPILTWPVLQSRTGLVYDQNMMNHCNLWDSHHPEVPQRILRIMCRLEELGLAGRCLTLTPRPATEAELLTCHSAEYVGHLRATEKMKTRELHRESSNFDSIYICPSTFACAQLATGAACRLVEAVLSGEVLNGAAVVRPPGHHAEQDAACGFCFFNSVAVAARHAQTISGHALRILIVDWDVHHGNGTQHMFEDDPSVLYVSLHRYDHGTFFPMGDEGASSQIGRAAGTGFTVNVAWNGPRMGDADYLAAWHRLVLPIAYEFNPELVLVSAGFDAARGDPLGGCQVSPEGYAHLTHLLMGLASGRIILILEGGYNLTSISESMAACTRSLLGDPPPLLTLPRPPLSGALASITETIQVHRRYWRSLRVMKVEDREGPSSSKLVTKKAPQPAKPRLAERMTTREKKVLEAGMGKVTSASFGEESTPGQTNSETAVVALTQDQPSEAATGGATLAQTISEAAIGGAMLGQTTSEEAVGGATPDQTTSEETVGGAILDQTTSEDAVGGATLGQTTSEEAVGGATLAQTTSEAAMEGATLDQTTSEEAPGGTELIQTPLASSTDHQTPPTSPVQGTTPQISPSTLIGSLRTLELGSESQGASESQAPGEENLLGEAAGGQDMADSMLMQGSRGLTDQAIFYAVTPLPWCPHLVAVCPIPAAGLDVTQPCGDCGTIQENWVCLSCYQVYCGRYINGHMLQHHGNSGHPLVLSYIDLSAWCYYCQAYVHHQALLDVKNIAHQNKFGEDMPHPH
# HDAC-1, sequence (Q13547 whole entry): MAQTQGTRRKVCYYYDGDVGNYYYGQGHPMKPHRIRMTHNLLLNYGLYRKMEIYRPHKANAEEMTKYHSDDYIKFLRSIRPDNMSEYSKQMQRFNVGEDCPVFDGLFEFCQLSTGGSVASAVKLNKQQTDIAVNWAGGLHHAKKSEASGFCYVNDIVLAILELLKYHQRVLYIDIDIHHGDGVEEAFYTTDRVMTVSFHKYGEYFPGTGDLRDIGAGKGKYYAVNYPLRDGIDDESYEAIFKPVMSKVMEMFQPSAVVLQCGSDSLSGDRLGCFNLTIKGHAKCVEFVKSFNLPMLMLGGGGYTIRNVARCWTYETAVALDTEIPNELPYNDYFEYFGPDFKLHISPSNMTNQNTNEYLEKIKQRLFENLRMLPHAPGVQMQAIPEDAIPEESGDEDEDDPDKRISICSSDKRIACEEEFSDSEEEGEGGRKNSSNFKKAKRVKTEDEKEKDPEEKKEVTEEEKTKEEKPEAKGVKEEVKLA
# CDK6/cycD3, sequence (Q00534 whole entry, species assumed): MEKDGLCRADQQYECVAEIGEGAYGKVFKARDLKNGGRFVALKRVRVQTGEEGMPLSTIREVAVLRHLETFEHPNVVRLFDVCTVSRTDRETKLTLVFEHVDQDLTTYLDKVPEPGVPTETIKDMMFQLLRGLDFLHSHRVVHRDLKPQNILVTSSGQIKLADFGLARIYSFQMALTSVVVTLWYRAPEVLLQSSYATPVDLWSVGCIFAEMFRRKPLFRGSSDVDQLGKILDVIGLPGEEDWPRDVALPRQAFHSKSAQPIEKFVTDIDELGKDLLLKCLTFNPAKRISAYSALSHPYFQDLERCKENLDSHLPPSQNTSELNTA
# CDK6/cycD3, sequence (P30281 whole entry partner, species assumed): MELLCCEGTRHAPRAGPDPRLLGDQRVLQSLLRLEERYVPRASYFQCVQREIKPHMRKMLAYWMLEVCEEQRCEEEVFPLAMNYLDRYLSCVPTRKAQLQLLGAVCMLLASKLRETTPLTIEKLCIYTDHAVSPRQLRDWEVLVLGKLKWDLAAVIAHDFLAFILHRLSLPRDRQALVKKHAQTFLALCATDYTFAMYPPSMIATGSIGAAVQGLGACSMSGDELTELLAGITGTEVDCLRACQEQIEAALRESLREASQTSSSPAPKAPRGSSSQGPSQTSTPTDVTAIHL
# CDK4/CycD3, sequence (P11802 whole entry, species assumed): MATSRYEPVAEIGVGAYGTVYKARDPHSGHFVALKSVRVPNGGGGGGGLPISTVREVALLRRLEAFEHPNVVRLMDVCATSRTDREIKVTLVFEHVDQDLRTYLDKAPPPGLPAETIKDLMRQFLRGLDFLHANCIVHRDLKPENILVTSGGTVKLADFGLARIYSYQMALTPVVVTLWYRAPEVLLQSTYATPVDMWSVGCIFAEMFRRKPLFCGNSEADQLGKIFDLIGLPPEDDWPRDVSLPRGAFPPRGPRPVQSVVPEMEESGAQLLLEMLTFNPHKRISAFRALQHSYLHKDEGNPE
# CDK4/CycD3, sequence (P30281 whole entry partner, species assumed): as the sequence (P30281 whole entry partner, species assumed) above
IC50 [1] [nM],"IC50 [2, 6] [nM]",IC50 [3] [nM],IC50 [2] [nM],IC50 [4] [nM],IC50 [5] [nM],Compound
< 100,< 25,< 1000,–,–,–,"CC(=O)c1c(C)c2cnc(Nc3ccc(N4CC5CNCC(C4)C5(F)F)cn3)nc2n(C2CCCC2)c1=O (single isomer, unassigned) [Compound 4-1, 6-acetyl-8-cyclopentyl-2-(5-(9,9-difluoro-3,7-diazabicyclo[3.3.1]nonan-3-yl)pyridin-2-ylamino)-5-methylpyrido[2,3-d]pyrimidin-7(8H)-one]"
< 25,< 10,> 5000,–,–,–,"CC(=O)c1c(C)c2cnc(Nc3ccc(N4CC5CNCC(C5)C4)cn3)nc2n(C2CCCC2)c1=O [Compound 1, 2-(5-(3,7-diazabicyclo[3.3.1]nonan-3-yl)pyridin-2-ylamino)-6-acetyl-8-cyclopentyl-5-methylpyrido[2,3-d]pyrimidin-7(8H)-one]"
< 100,< 25,> 5000,–,–,–,"CC(=O)c1c(C)c2cnc(Nc3ccc(N4CC5CNCC(C4)O5)cn3)nc2n(C2CCCC2)c1=O [Compound 2, 2-(5-(9-oxa-3,7-diazabicyclo[3.3.1]nonan-3-yl)pyridin-2-ylamino)-6-acetyl-8-cyclopentyl-5-methylpyrido[2,3-d]pyrimidin-7(8H)-one]"
< 25,< 10,> 5000,–,–,–,"CC(=O)c1c(C)c2cnc(Nc3ccc(N4CCC5(CC4)CNC5)cn3)nc2n(C2CCCC2)c1=O [Compound 3, 2-(5-(2,7-Diazaspiro[3.5]nonan-7-yl)pyridin-2-ylamino)-6-acetyl-8-cyclopentyl-5-methylpyrido[2,3-d]pyrimidin-7(8H)-one]"
< 100,< 50,–,–,–,–,"CC(=O)c1c(C)c2cnc(Nc3ccc(N4CC5CNCC(C4)C5(F)F)cn3)nc2n(C2CCCC2)c1=O [Compound 4-2, 6-acetyl-8-cyclopentyl-2-(5-(9,9-difluoro-3,7-diazabicyclo[3.3.1]nonan-3-yl)pyridin-2-ylamino)-5-methylpyrido[2,3-d]pyrimidin-7(8H)-one]"
< 25,< 10,> 5000,–,–,–,"CC(=O)c1c(C)c2cnc(Nc3ccc(N4CCCC5(CCNCC5)C4)cn3)nc2n(C2CCCC2)c1=O [Compound 6, 2-(5-(2,9-diazaspiro[5.5]undecan-2-yl)pyridin-2-ylamino)-6-acetyl-8-cyclopentyl-5-methylpyrido[2,3-d]pyrimidin-7(8H)-one]"
< 100,–,> 1000,< 10,–,–,"CC(=O)c1c(C)c2cnc(Nc3ccc4c(n3)CCNC4)nc2n(C2CCCC2)c1=O [Compound 8, 6-acetyl-8-cyclopentyl-5-methyl-2-(5,6,7,8-tetrahydro-1,6-naphthyridin-2-ylamino)pyrido[2,3-d]pyrimidin-7(8H)-one]"
< 25,< 10,> 10000,–,< 10,< 50,"CC(=O)c1c(C)c2cnc(Nc3ccc(N4CCN(C(=O)CCCCCCC(=O)NO)CC4)cn3)nc2n(C2CCCC2)c1=O [Compound 12, 8-(4-(6-(6-acetyl-8-cyclopentyl-5-methyl-7-oxo-7,8-dihydropyrido[2,3-d]pyrimidin-2-ylamino)pyridin-3-yl)piperazin-1-yl)-N-hydroxy-8-oxooctanamide]"
< 50,< 25,> 1000,–,–,–,"CC(=O)c1c(C)c2cnc(Nc3ccc(N4CCN(C(=O)CCCC(=O)NO)CC4)cn3)nc2n(C2CCCC2)c1=O [Compound 13, 5-(4-(6-(6-acetyl-8-cyclopentyl-5-methyl-7-oxo-7,8-dihydropyrido[2,3-d]pyrimidin-2-ylamino)pyridin-3-yl)piperazin-1-yl)-N-hydroxy-5-oxopentanamide]"
< 10,< 10,–,–,< 50,< 500,"CC(=O)c1c(C)c2cnc(Nc3ccc(N4CCN(CCCCCCC(=O)NO)CC4)cn3)nc2n(C2CCCC2)c1=O [Compound 14, 7-(4-(6-(6-acetyl-8-cyclopentyl-5-methyl-7-oxo-7,8-dihydropyrido[2,3-d]pyrimidin-2-ylamino)pyridin-3-yl)piperazin-1-yl)-N-hydroxyheptanamide]"
< 50,< 10,> 1000,–,< 10,< 500,"CC(=O)c1c(C)c2cnc(Nc3ccc(N4CCN(Cc5ccc(C(=O)NO)cc5)CC4)cn3)nc2n(C2CCCC2)c1=O [Compound 16, 4-((4-(6-((6-acetyl-8-cyclopentyl-5-methyl-7-oxo-7,8-dihydropyrido[2,3-d]pyrimidin-2-yl)amino)pyridin-3-yl)piperazin-1-yl)methyl)-N-hydroxybenzamide]"
< 500,< 50,> 1000,–,< 50,< 500,"CC(=O)c1c(C)c2cnc(Nc3ccc(C(=O)NO)cn3)nc2n(C2CCCC2)c1=O [Compound 17, 6-((6-acetyl-8-cyclopentyl-5-methyl-7-oxo-7,8-dihydropyrido[2,3-d]pyrimidin-2-yl)amino)-N-hydroxynicotinamide]"
< 1000,< 50,> 1000,–,< 10,< 50,"CC(=O)c1c(C)c2cnc(Nc3ccc(C(=O)NCCCCCCC(=O)NO)cn3)nc2n(C2CCCC2)c1=O [Compound 18, 6-((6-acetyl-8-cyclopentyl-5-methyl-7-oxo-7,8-dihydropyrido[2,3-d]pyrimidin-2-yl)amino)-N-(7-(hydroxyamino)-7-oxoheptyl)nicotinamide]"

Compound,IC50 [1] [nM],"IC50 [2, 6] [nM]",IC50 [3] [nM],IC50 [2] [nM],IC50 [4] [nM],IC50 [5] [nM]
"CC(=O)c1c(C)c2cnc(Nc3ccc(N4CCN(CCCCCCCC(=O)NO)CC4)cn3)nc2n(C2CCCC2)c1=O [Compound 15, 8-(4-(6-((6-acetyl-8-cyclopentyl-5-methyl-7-oxo-7,8-dihydropyrido[2,3-d]pyrimidin-2-yl)amino)pyridin-3-yl)piperazin-1-yl)-N-hydroxyoctanamide]",< 25,< 10,> 1000,–,< 50,< 500

# Reference: patent publication US11225492B2, “Heterocycles useful as anti-cancer agents” (Hangzhou Innogate Pharma Co., Ltd., priority 2015, dated 2022)
